According to patent publication US20250099474A1 (priority 2022, published 2025):

Columns and labels:
[1] = Phase I clinical study Part 1, single administration, pharmacokinetics and safety; format: in vivo, human; conditions: phase 1 study
Description: Test Example 3-1 Phase I Clinical Study
All studies were conducted based on Good Clinical Practice (GCP). The phase I clinical study was composed of Part 1 to Part 7, and in Part 1, the safety, tolerability, and pharmacokinetics were confirmed when the fumaric acid cocrystal Form I crystal of the compound represented by Formula (I) was administered once and when it was administered repeatedly.
The subjects who were determined to be eligible by the screening examination were randomly assigned to either the active drug group (see the following table for the dose of the fumaric acid cocrystal Form I crystal of the compound represented by Formula (I)) or the placebo group on the day before the day of administration of the investigational new drug (Day −1). On Day 1, the investigational new drug (active drug or placebo) was administered once in the fasted state.

SARS-CoV-2 = experiment: Phase 2/3 study, Phase 2a Part: SARS-CoV-2 virus titer; format: in vivo, human; conditions: for Change from baseline in SARS-CoV-2 virus titer compared to placebo group: mITT, significance level 0.05
Description: The primary endpoint of Phase 2a Part was the change from baseline in SARS-CoV-2 virus titer at each time point in common among mild/moderate and asymptomatic SARS-CoV-2-infected patients, and the antiviral effect of the active drug was confirmed.
The administration of the active drug is repeated oral administration once a day for 5 days. The 375/125 mg group received 375 mg on Day 1 as a loading dose and 125 mg on Days 2 to 5 as a maintenance dose. The 750/250 mg group received 750 mg on Day 1 as a loading dose and 250 mg on Days 2 to 5 as a maintenance dose.
The primary efficacy endpoint of Phase 2a Part was the change from baseline in SARS-CoV-2 virus titer at each time point in common among mild/moderate and asymptomatic SARS-CoV-2-infected patients. It was defined as an absolute change from baseline in observed value of SARS-CoV-2 virus titer at each time point.
For each population of the mild/moderate SARS-CoV-2-infected patients, the asymptomatic SARS-CoV-2-infected patients, and the merged population thereof, summary statistics of the change from baseline in SARS-CoV-2 virus titer at each time point were calculated for the mITT population. Furthermore, a van Elteren test was applied to a combined population of mild/moderate and asymptomatic SARS-CoV-2-infected patients. Pairwise comparisons were made between each active drug dose group and the placebo group for SARS-CoV-2 virus titer at each time point at a two-sided significance level of 5%. The population of the mild/moderate SARS-CoV-2-infected patients and the population of the asymptomatic SARS-CoV-2-infected patients were used as strata in the van Elteren test.
In addition, when the virus titer was less than the lower detection limit (0.8 log10 (TCID50/mL)), the value of the virus titer was handled as 0.8 log10 (TCID50/mL). […] In the RT-PCR measurement results and the virus titer measurement results that were available by the time point of Jan.

## Cn1cnc(Cn2c(=O)[nH]/c(=N\c3cc4cn(C)nc4cc3Cl)n(Cc3cc(F)c(F)cc3F)c2=O)n1 [(6E)-6-[(6-chloro-2-methyl-2H-indazol-5-yl)imino]-3-[(1-methyl-1H-1,2,4-triazol-3-yl)methyl]-1-[(2,4,5-trifluorophenyl)methyl]-1,3,5-triazinane-2,4-dione]
[1]
  serious adverse events: no serious adverse events for which a causal relationship cannot be denied were reported
SARS-CoV-2; Day 4, 375/125 mg group
  Decrease of proportion of patients with a positive virus titer of 0.8 or more, with respect to placebo group: 63%
SARS-CoV-2; Day 4, 750/250 mg group
  Decrease of proportion of patients with a positive virus titer of 0.8 or more, with respect to placebo group: 80%
SARS-CoV-2; Day 6, 375/125 mg group
  Decrease of proportion of patients with a positive virus titer of 0.8 or more, with respect to placebo group: 100%
SARS-CoV-2; Day 6, 750/250 mg group
  Decrease of proportion of patients with a positive virus titer of 0.8 or more, with respect to placebo group: 54%
SARS-CoV-2; 375/125 mg group, Visit 3 (Day 4)
  Change from baseline in SARS-CoV-2 virus titer compared to placebo group: statistically significantly decreased
SARS-CoV-2; 750/250 mg group, Visit 2 (Day 2) and Visit 3 (Day 4)
  Change from baseline in SARS-CoV-2 virus titer compared to placebo group: statistically significantly decreased
SARS-CoV-2; results available by Jan. 17, 2022, 375/125 mg group, all time points after Visit 3 (Day 4)
  SARS-CoV-2 virus titer compared to placebo group: tendency for the virus titer to decrease
SARS-CoV-2; results available by Jan. 17, 2022, 750/250 mg group, all time points after Visit 2 (Day 2)
  SARS-CoV-2 virus titer compared to placebo group: tendency for the virus titer to decrease
